Assay results from patent US20240116912A1, “COMPOUNDS AND METHODS FOR MODULATING FXR” (Terns Pharmaceuticals, Inc., priority 2020, published 2024).

Tests used:
[1] = target: full length human FXR protein (Homo sapiens (Human), UniProt Q96RI1); assay: FXR cellular assay (FXR-SRCP β-gal enzyme fragment complementation in CHO-K1 cells, chemiluminescence); assay type: cell-based; details: CHO-K1 cells with SRCP-EA and ProLink-labeled FXR, 0-10 micromolar compound, 37° C. for 6h, read-out: EC50 FXR-cell Luminescence/
Chain of full length human FXR protein (Q96RI1 whole entry, the tested form may be a part): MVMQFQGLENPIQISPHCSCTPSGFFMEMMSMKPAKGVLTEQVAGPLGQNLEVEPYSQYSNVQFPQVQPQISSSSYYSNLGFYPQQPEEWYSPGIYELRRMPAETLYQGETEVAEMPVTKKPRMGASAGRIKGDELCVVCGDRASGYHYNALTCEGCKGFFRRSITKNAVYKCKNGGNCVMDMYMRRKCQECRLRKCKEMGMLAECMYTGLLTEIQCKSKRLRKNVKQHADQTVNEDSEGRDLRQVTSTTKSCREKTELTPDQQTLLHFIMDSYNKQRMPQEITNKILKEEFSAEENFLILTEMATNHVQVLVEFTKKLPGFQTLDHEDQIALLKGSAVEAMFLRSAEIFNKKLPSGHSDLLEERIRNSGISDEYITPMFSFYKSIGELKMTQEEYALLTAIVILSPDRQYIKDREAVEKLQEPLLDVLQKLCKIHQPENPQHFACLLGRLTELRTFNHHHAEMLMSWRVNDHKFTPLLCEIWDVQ
Description: A cell based FXR assay was used to detect protein-protein interactions between an activated (ligand-bound), full length human FXR protein and a nuclear fusion protein containing a Steroid Receptor Coactivator Peptide (SCRP) domain. In this approach, two weakly complementing fragments of the 3-gal enzyme were expressed within stably transfected Chinese Hamster Ovary (CHO-K1) cells. The complementing fragments of the 3-gal enzyme (ProLink, PK; and Enzyme Acceptor, EA) were translationally fused to the C-terminus of a full-length FXR and to the SRCP, respectively. Complementation was driven by the protein-protein interaction between SRCP-EA and a ProLink-labeled FXR. Upon FXR-SRCP binding, the two fragments of 3-gal complement, forming a functional enzyme capable of hydrolyzing a substrate molecule and generating a chemiluminescent signal.
CHO-K1 cells containing SRCP-EA and ProLink-labeled FXR were plated in 384-well microplates and incubated at 37° C. overnight. A positive control FXR agonist, GW4064 (0-10 micromolar), or test compounds (0-10 micromolar) were added to plated cells and incubated at 37° C. for 6h (final DMSO vehicle concentration was 1%). The assay signal was generated by addition of 50% (v/v) detection reagent (19:5:1, cell assay buffer: substrate reagent 1: substrate reagent 2, DiscoverX) followed by incubation for 1h at ambient room temperature. Microplates were analyzed using an Envision reader (PerkinElmer Life and Analytical Sciences, Signal=chemiluminescence).

[2] = target: ligand binding domain (LBD) of recombinant human FXR (Homo sapiens (Human), UniProt Q96RI1); assay: FXR cell free coactivator (SRC-1) recruitment assay, TR-FRET; details: FXR LBD (amino acids 244-476) with labeled SRC-1 domain, 25° C. for 60 minutes, activity relative to CDCA maximum; read-out: EC50 FXR- Biochemical TR-FRET/μM
Chain of ligand binding domain (LBD) of recombinant human FXR (Q96RI1 254-486): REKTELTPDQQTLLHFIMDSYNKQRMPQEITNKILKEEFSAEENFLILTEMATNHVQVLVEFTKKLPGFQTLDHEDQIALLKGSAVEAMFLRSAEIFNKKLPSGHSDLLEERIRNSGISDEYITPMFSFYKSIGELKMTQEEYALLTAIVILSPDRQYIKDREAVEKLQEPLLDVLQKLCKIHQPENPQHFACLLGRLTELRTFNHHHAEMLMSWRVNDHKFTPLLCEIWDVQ
Chain of ligand binding domain (LBD) of recombinant human FXR (Q15788 whole entry partner, the tested form may be a part): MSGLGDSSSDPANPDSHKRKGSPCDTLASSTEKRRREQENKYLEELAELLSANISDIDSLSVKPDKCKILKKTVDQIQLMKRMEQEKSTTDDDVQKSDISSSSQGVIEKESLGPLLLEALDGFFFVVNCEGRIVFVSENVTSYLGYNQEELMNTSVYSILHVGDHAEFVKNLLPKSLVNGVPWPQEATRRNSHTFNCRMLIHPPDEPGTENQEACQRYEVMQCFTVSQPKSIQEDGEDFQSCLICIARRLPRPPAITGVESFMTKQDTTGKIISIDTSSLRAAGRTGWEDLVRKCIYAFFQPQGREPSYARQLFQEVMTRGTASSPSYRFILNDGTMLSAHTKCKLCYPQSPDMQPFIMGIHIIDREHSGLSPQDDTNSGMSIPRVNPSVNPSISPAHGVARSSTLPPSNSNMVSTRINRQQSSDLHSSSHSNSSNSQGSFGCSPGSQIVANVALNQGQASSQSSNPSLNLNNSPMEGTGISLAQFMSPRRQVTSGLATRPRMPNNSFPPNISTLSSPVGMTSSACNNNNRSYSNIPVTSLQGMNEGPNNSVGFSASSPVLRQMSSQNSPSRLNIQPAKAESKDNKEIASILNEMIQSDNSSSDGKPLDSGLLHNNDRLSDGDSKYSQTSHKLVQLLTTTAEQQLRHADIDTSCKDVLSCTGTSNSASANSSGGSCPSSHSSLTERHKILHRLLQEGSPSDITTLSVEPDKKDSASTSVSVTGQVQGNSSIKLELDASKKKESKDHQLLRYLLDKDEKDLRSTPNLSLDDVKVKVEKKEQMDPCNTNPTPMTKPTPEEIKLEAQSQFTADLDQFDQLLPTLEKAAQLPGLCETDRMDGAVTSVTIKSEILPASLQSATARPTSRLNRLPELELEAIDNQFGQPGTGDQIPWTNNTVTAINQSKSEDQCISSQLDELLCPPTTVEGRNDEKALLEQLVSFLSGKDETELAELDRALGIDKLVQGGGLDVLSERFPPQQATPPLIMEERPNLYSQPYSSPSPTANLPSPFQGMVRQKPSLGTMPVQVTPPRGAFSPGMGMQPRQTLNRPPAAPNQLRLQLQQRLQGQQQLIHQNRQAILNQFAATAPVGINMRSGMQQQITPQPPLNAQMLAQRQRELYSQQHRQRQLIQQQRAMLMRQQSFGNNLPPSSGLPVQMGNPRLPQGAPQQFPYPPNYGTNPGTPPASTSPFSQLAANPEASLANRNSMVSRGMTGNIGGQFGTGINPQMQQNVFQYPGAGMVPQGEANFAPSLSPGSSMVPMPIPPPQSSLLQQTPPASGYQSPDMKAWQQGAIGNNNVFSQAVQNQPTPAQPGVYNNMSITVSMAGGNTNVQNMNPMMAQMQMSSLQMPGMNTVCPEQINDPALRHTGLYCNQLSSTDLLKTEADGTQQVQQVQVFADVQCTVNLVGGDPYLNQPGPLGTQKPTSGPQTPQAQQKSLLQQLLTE
Experimental: A cell free coactivator recruitment assay was developed for FXR, to measure the functional potency of novel FXR compounds. In this assay, novel FXR compounds were bound to the ligand binding domain (LBD) of recombinant human FXR. The ability of this liganded homodimeric complex to recruit the co-activator protein steroid receptor coactivator 1 (SRC-1) was measured using Time-Resolved Fluorescence Resonance Energy Transfer (TR-FRET).
The LBD of human FXR (amino acids 244-476) was cloned into an expression vector for protein expression in SF9 insect cells. Purified FXR LBD was incubated in TR-FRET coregulator buffer G (Eurofins) with test compounds (0-10 micromolar) and a labeled nuclear receptor interaction domain of SRC-1 at 25° C. for 60 minutes (final DMSO vehicle concentration was 1.2%). Assays were analyzed using an Envision TR-FRET reader (PerkinElmer Life and Analytical Sciences). Compound activity at each concentration was defined as a percentage of the maximal activity of the natural FXR ligand agonist chenodeoxycholic acid (CDCA) generating a dose response curve.

SMILES: O=c1[nH]c(-c2ccc(N3CCC(OCc4c(-c5c(Cl)cccc5Cl)noc4C4CC4)CC3)s2)no1 [Example 35, 3-(5-(4-((5-cyclopropyl-3-(2,6-dichlorophenyl)isoxazol-4-yl)methoxy)piperidin-1-yl)thiophen-2-yl)-1,2,4-oxadiazol-5(4H)-one]
- EC50 [1]: 324 nM
- EC50 [2]: 0.0435 µM

SMILES: C[C@H]1CN(c2ccc(-c3noc(=O)[nH]3)cc2)CC[C@H]1OCc1c(-c2c(Cl)cccc2Cl)noc1C1CC1 [Example 32, 3-(4-((3S,4R)-4-((5-cyclopropyl-3-(2,6-dichlorophenyl)isoxazol-4-yl)methoxy)-3-methylpiperidin-1-yl)phenyl)-1,2,4-oxadiazol-5(4H)-one]
- EC50 [1]: 195 nM
- EC50 [2]: 0.0126 µM

SMILES: O=c1[nH]nc(-c2ccc(N3CCC(OCc4c(-c5ccccc5OC(F)(F)F)noc4C4CC4)CC3)cc2)o1 [Example 51, 5-(4-(4-((5-cyclopropyl-3-(2-(trifluoromethoxy)phenyl)isoxazol-4-yl)methoxy)piperidin-1-yl)phenyl)-1,3,4-oxadiazol-2(3H)-one]
- EC50 [1]: 1290 nM
- EC50 [2]: 0.325 µM

SMILES: Cn1nc(N2CCC(OCc3c(-c4c(Cl)cccc4Cl)noc3C3CC3)CC2)cc1-c1noc(=O)[nH]1 [Example 70, 3-(3-(4-((5-cyclopropyl-3-(2,6-dichlorophenyl)isoxazol-4-yl)methoxy)piperidin-1-yl)-1-methyl-1H-pyrazol-5-yl)-1,2,4-oxadiazol-5(4H)-one]
- EC50 [1]: > 10000 nM
- EC50 [2]: 0.233 µM

SMILES: O=c1[nH]c(-c2ccc(N3CCC(OCc4c(-c5c(Cl)cccc5Cl)noc4C4CC4)C3)cc2)no1 (stereo not drawn) [Example 15, 3-(4-(3-((5-cyclopropyl-3-(2,6-dichlorophenyl)isoxazol-4-yl)methoxy)pyrrolidin-1-yl)phenyl)-1,2,4-oxadiazol-5(4H)-one]
- EC50 [1]: 5510 nM
- EC50 [2]: 0.892 µM

SMILES: O=c1[nH]c(-c2ccc(N3CCC(OCc4c(-c5c(F)cccc5F)noc4C4CC4)C(F)(F)C3)nc2)no1 (stereo not drawn) [Example 63, 3-(6-(4-((5-cyclopropyl-3-(2,6-difluorophenyl)isoxazol-4-yl)methoxy)-3,3-difluoropiperidin-1-yl)pyridin-3-yl)-1,2,4-oxadiazol-5(4H)-one]
- EC50 [1]: 2660 nM
- EC50 [2]: 0.215 µM

SMILES: O=c1[nH]c(-c2ccc(N3CCC(OCc4c(-c5ccccc5OC(F)(F)F)noc4C4CC4)CC3)nc2)no1 [Example 75, 3-(6-(4-((5-cyclopropyl-3-(2-(trifluoromethoxy)phenyl)isoxazol-4-yl)methoxy)piperidin-1-yl)pyridin-3-yl)-1,2,4-oxadiazol-5(4H)-one]
- EC50 [1]: 382 nM

SMILES: O=c1cc(-c2ccc(N3[C@@H]4CC[C@H]3C[C@@H](OCc3c(-c5ccccc5OC(F)(F)F)noc3C3CC3)C4)cc2)o[nH]1 [Example 81, 5-(4-((1R,3r,5S)-3-((5-cyclopropyl-3-(2-(trifluoromethoxy)phenyl)isoxazol-4-yl)methoxy)-8-azabicyclo[3.2.1]octan-8-yl)phenyl)isoxazol-3(2H)-one]
- EC50 [1]: 175 nM

SMILES: O=c1cc(-c2ccc(N3CCC(OCc4c(-c5ccccc5OC(F)(F)F)noc4C4CC4)C(F)(F)C3)cc2)o[nH]1 (stereo not drawn) [Example 84, 5-(4-(4-((5-cyclopropyl-3-(2-(trifluoromethoxy)phenyl)isoxazol-4-yl)methoxy)-3,3-difluoropiperidin-1-yl)phenyl)isoxazol-3(2H)-one]
- EC50 [1]: 1530 nM

SMILES: N#Cc1nn(-c2ccc(N3[C@@H]4CC[C@H]3C[C@@H](OCc3c(-c5ccccc5OC(F)(F)F)noc3C3CC3)C4)cc2)c(=O)[nH]c1=O [Example 89, 2-(4-((1R,3r,5S)-3-((5-cyclopropyl-3-(2-(trifluoromethoxy)phenyl)isoxazol-4-yl)methoxy)-8-azabicyclo[3.2.1]octan-8-yl)phenyl)-3,5-dioxo-2,3,4,5-tetrahydro-1,2,4-triazine-6-carbonitrile]
- EC50 [1]: 1000 nM

SMILES: O=c1cc(-c2ccc(N3CCC(OCc4c(-c5c(Cl)cccc5Cl)noc4C4CC4)C(F)(F)C3)cc2)o[nH]1 (stereo not drawn) [Example 87, 5-(4-(4-((5-cyclopropyl-3-(2,6-dichlorophenyl)isoxazol-4-yl)methoxy)-3,3-difluoropiperidin-1-yl)phenyl)isoxazol-3(2H)-one]
- EC50 [1]: 261 nM

SMILES: N#Cc1n[nH]c(=O)n(-c2ccc(N3CCC(OCc4c(-c5c(Cl)cccc5Cl)noc4C4CC4)CC3)nc2)c1=O [Example 83, 4-(6-(4-((5-cyclopropyl-3-(2,6-dichlorophenyl)isoxazol-4-yl)methoxy)piperidin-1-yl)pyridin-3-yl)-3,5-dioxo-2,3,4,5-tetrahydro-1,2,4-triazine-6-carbonitrile]
- EC50 [1]: 5250 nM

SMILES: O=c1[nH]c(-c2ccc(N3[C@@H]4CC[C@H]3C[C@@H](OCc3c(-c5c(F)cccc5F)noc3C3CC3)C4)nc2)no1 [Example 78, 3-(6-((1R,3r,5S)-3-((5-cyclopropyl-3-(2,6-difluorophenyl)isoxazol-4-yl)methoxy)-8-azabicyclo[3.2.1]octan-8-yl)pyridin-3-yl)-1,2,4-oxadiazol-5(4H)-one]
- EC50 [1]: 154 nM

SMILES: O=c1cnn(-c2ccc(N3[C@@H]4CC[C@H]3C[C@@H](OCc3c(-c5ccccc5OC(F)(F)F)noc3C3CC3)C4)cc2)c(=O)[nH]1 [Example 88, 2-(4-((1R,3r,5S)-3-((5-cyclopropyl-3-(2-(trifluoromethoxy)phenyl)isoxazol-4-yl)methoxy)-8-azabicyclo[3.2.1]octan-8-yl)phenyl)-1,2,4-triazine-3,5(2H,4H)-dione]
- EC50 [1]: 460 nM

SMILES: N#Cc1n[nH]c(=O)n(-c2ccc(N3CCC(OCc4c(-c5ccccc5OC(F)(F)F)noc4C4CC4)CC3)cc2)c1=O [Example 86, 4-(4-(4-((5-cyclopropyl-3-(2-(trifluoromethoxy)phenyl)isoxazol-4-yl)methoxy)piperidin-1-yl)phenyl)-3,5-dioxo-2,3,4,5-tetrahydro-1,2,4-triazine-6-carbonitrile]
- EC50 [1]: 22900 nM

SMILES: O=c1[nH]c(-c2ccc(N3CC[C@@H](OCc4c(-c5ccccc5OC(F)(F)F)noc4C4CC4)[C@H](F)C3)cc2)no1 [Example 79, 3-(4-((3R,4R)-4-((5-cyclopropyl-3-(2-(trifluoromethoxy)phenyl)isoxazol-4-yl)methoxy)-3-fluoropiperidin-1-yl)phenyl)-1,2,4-oxadiazol-5(4H)-one]
- EC50 [1]: 312 nM

SMILES: C[C@@H]1C[C@H](OCc2c(-c3ccccc3OC(F)(F)F)noc2C2CC2)CCN1c1ccc(-c2noc(=O)[nH]2)cn1 [Example 76, 3-(6-((2R,4R)-4-((5-cyclopropyl-3-(2-(trifluoromethoxy)phenyl)isoxazol-4-yl)methoxy)-2-methylpiperidin-1-yl)pyridin-3-yl)-1,2,4-oxadiazol-5(4H)-one]
- EC50 [1]: 196 nM

SMILES: O=c1[nH]c(-c2ccc(N3CC[C@H](OCc4c(-c5ccccc5OC(F)(F)F)noc4C4CC4)[C@@H](F)C3)cc2)no1 [Example 80, 3-(4-((3S,4S)-4-((5-cyclopropyl-3-(2-(trifluoromethoxy)phenyl)isoxazol-4-yl)methoxy)-3-fluoropiperidin-1-yl)phenyl)-1,2,4-oxadiazol-5(4H)-one]
- EC50 [1]: 641 nM

SMILES: N#Cc1nn(-c2ccc(N3CCC(OCc4c(-c5c(Cl)cccc5Cl)noc4C4CC4)CC3)nc2)c(=O)[nH]c1=O [Example 82, 2-(6-(4-((5-cyclopropyl-3-(2,6-dichlorophenyl)isoxazol-4-yl)methoxy)piperidin-1-yl)pyridin-3-yl)-3,5-dioxo-2,3,4,5-tetrahydro-1,2,4-triazine-6-carbonitrile]
- EC50 [1]: 1830 nM

SMILES: O=c1[nH]c(-c2ccc(N3[C@@H]4CC[C@H]3C[C@@H](OCc3c(-c5ccccc5Cl)noc3C3CC3)C4)nc2)no1 [Example 77, 3-(6-((1R,3r,5S)-3-((3-(2-chlorophenyl)-5-cyclopropylisoxazol-4-yl)methoxy)-8-azabicyclo[3.2.1]octan-8-yl)pyridin-3-yl)-1,2,4-oxadiazol-5(4H)-one]
- EC50 [1]: 69.5 nM

SMILES: N#Cc1nn(-c2ccc(N3CCC(OCc4c(-c5ccccc5OC(F)(F)F)noc4C4CC4)CC3)cc2)c(=O)[nH]c1=O [Example 85, 2-(4-(4-((5-cyclopropyl-3-(2-(trifluoromethoxy)phenyl)isoxazol-4-yl)methoxy)piperidin-1-yl)phenyl)-3,5-dioxo-2,3,4,5-tetrahydro-1,2,4-triazine-6-carbonitrile]
- EC50 [1]: 755 nM
